Test results published in PubChem BioAssay AID1963841 (Molecular Pharmacology Branch, DTP, NCI, 2024).
pIC50: −log10 of the molar value.

System: 439559-082-T-J2-PDC spheroid viability
Assay: Anticancer human tumor 439559-082-T-J2-PDC patient-derived colon adenocarcinoma cell line growth inhibition [POLQ]
Conditions: spheroids with HUVEC and MSC; for pIC50: curve of first compound; for viability, T/C: stronger effect = lower value
How it was run: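 Complex spheroid viability model combining PDC tumour cells with endothelial (HUVEC) and MSC stromal cells. Novobiocin, ART-558 or RP6685 were tested singly and in combination with standard and investigational anticancer drugs. Each was titrated in half-log steps from near clinical Cmax, or from 10 microM where Cmax was unknown.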

[1] = second compound 0.0316 µM, first compound 0.00949 µM
[2] = second compound 0.0316 µM, first compound 0.03 µM
[3] = second compound 0.0316 µM, first compound 0.0949 µM
[4] = second compound 0.0316 µM, first compound 0.3 µM
[5] = second compound 0.0316 µM, first compound 0.949 µM
[6] = second compound 0.0316 µM, first compound 3 µM
[7] = second compound 0.1 µM, first compound 0.00949 µM
[8] = second compound 0.1 µM, first compound 0.03 µM
[9] = second compound 0.1 µM, first compound 0.0949 µM
[10] = second compound 0.1 µM, first compound 0.3 µM
[11] = second compound 0.1 µM, first compound 0.949 µM
[12] = second compound 0.1 µM, first compound 3 µM
[13] = second compound 0.316 µM, first compound 0.00949 µM
[14] = second compound 0.316 µM, first compound 0.03 µM
[15] = second compound 0.316 µM, first compound 0.0949 µM
[16] = second compound 0.316 µM, first compound 0.3 µM
[17] = second compound 0.316 µM, first compound 0.949 µM
[18] = second compound 0.316 µM, first compound 3 µM
[19] = second compound 1 µM, first compound 0.00949 µM
[20] = second compound 1 µM, first compound 0.03 µM
[21] = second compound 1 µM, first compound 0.0949 µM
[22] = second compound 1 µM, first compound 0.3 µM
[23] = second compound 1 µM, first compound 0.949 µM
[24] = second compound 1 µM, first compound 3 µM
[25] = second compound 3.16 µM, first compound 0.00949 µM
[26] = second compound 3.16 µM, first compound 0.03 µM
[27] = second compound 3.16 µM, first compound 0.0949 µM
[28] = second compound 3.16 µM, first compound 0.3 µM
[29] = second compound 3.16 µM, first compound 0.949 µM
[30] = second compound 3.16 µM, first compound 3 µM
[31] = second compound 10 µM, first compound 0.00949 µM
[32] = second compound 10 µM, first compound 0.03 µM
[33] = second compound 10 µM, first compound 0.0949 µM
[34] = second compound 10 µM, first compound 0.3 µM
[35] = second compound 10 µM, first compound 0.949 µM
[36] = second compound 10 µM, first compound 3 µM
[37] = second compound 0.0316 µM, first compound 0.0316 µM
[38] = second compound 0.0316 µM, first compound 0.1 µM
[39] = second compound 0.0316 µM, first compound 0.316 µM
[40] = second compound 0.0316 µM, first compound 1 µM
[41] = second compound 0.0316 µM, first compound 3.16 µM
[42] = second compound 0.0316 µM, first compound 10 µM
[43] = second compound 0.1 µM, first compound 0.0316 µM
[44] = second compound 0.1 µM, first compound 0.1 µM
[45] = second compound 0.1 µM, first compound 0.316 µM
[46] = second compound 0.1 µM, first compound 1 µM
[47] = second compound 0.1 µM, first compound 3.16 µM
[48] = second compound 0.1 µM, first compound 10 µM
[49] = second compound 0.316 µM, first compound 0.0316 µM
[50] = second compound 0.316 µM, first compound 0.1 µM
[51] = second compound 0.316 µM, first compound 0.316 µM
[52] = second compound 0.316 µM, first compound 1 µM
[53] = second compound 0.316 µM, first compound 3.16 µM
[54] = second compound 0.316 µM, first compound 10 µM
[55] = second compound 1 µM, first compound 0.0316 µM
[56] = second compound 1 µM, first compound 0.1 µM
[57] = second compound 1 µM, first compound 0.316 µM
[58] = second compound 1 µM, first compound 1 µM
[59] = second compound 1 µM, first compound 3.16 µM
[60] = second compound 1 µM, first compound 10 µM
[61] = second compound 3.16 µM, first compound 0.0316 µM
[62] = second compound 3.16 µM, first compound 0.1 µM
[63] = second compound 3.16 µM, first compound 0.316 µM
[64] = second compound 3.16 µM, first compound 1 µM
[65] = second compound 3.16 µM, first compound 3.16 µM
[66] = second compound 3.16 µM, first compound 10 µM
[67] = second compound 10 µM, first compound 0.0316 µM
[68] = second compound 10 µM, first compound 0.1 µM
[69] = second compound 10 µM, first compound 0.316 µM
[70] = second compound 10 µM, first compound 1 µM
[71] = second compound 10 µM, first compound 3.16 µM
[72] = second compound 10 µM, first compound 10 µM
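Note: spheroids exposed to compounds for seven days before readout.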
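Throughout, for viability, T/C: 100% = DMSO vehicle control viability.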

Structure (SMILES): CC(=O)O[C@H]1C(=O)[C@@]2(C)[C@H]([C@H](OC(=O)c3ccccc3)[C@]3(O)C[C@H](OC(=O)[C@H](O)[C@@H](NC(=O)c4ccccc4)c4ccccc4)C(C)=C1C3(C)C)[C@]1(OC(C)=O)CO[C@@H]1C[C@@H]2O + COC1C(OC(N)=O)C(O)C(Oc2ccc3c(O)c(NC(=O)c4ccc(O)c(CC=C(C)C)c4)c(=O)oc3c2C)OC1(C)C
- pIC50 (second compound 0.0316 µM): 5.98
- pIC50 (second compound 0.1 µM): 5.83
- pIC50 (second compound 0.316 µM): 5.86
- pIC50 (second compound 1 µM): 5.82
- pIC50 (second compound 3.16 µM): 5.89
- pIC50 (second compound 10 µM): 5.82
- viability, T/C [1]: 87.2%
- viability, T/C [2]: 90.8%
- viability, T/C [3]: 78.8%
- viability, T/C [4]: 77%
- viability, T/C [5]: 49.9%
- viability, T/C [6]: 39.4%
- viability, T/C [7]: 90.8%
- viability, T/C [8]: 88.4%
- viability, T/C [9]: 80.6%
- viability, T/C [10]: 75.3%
- viability, T/C [11]: 57.1%
- viability, T/C [12]: 37.4%
- viability, T/C [13]: 93.5%
- viability, T/C [14]: 89.6%
- viability, T/C [15]: 80.4%
- viability, T/C [16]: 71%
- viability, T/C [17]: 56.5%
- viability, T/C [18]: 37.1%
- viability, T/C [19]: 90.1%
- viability, T/C [20]: 87.2%
- viability, T/C [21]: 79.3%
- viability, T/C [22]: 73%
- viability, T/C [23]: 57.8%
- viability, T/C [24]: 38.5%
- viability, T/C [25]: 90.3%
- viability, T/C [26]: 83.3%
- viability, T/C [27]: 82.3%
- viability, T/C [28]: 69.1%
- viability, T/C [29]: 53.2%
- viability, T/C [30]: 40.4%
- viability, T/C [31]: 90.8%
- viability, T/C [32]: 80.1%
- viability, T/C [33]: 80.5%
- viability, T/C [34]: 74.8%
- viability, T/C [35]: 55%
- viability, T/C [36]: 40.2%

Structure (SMILES): CCCS(=O)(=O)Nc1ccc(F)c(C(=O)c2c[nH]c3ncc(-c4ccc(Cl)cc4)cc23)c1F + COC1C(OC(N)=O)C(O)C(Oc2ccc3c(O)c(NC(=O)c4ccc(O)c(CC=C(C)C)c4)c(=O)oc3c2C)OC1(C)C
- pIC50 (second compound 0.0316 µM): < 5.00
- pIC50 (second compound 0.1 µM): < 5.00
- pIC50 (second compound 0.316 µM): < 5.00
- pIC50 (second compound 1 µM): < 5.00
- pIC50 (second compound 3.16 µM): < 5.00
- pIC50 (second compound 10 µM): < 5.00
- viability, T/C [37]: 103%
- viability, T/C [38]: 109%
- viability, T/C [39]: 96.6%
- viability, T/C [40]: 95.8%
- viability, T/C [41]: 99.7%
- viability, T/C [42]: 70%
- viability, T/C [43]: 108%
- viability, T/C [44]: 107%
- viability, T/C [45]: 99.9%
- viability, T/C [46]: 102%
- viability, T/C [47]: 100%
- viability, T/C [48]: 67.9%
- viability, T/C [49]: 104%
- viability, T/C [50]: 106%
- viability, T/C [51]: 101%
- viability, T/C [52]: 92.9%
- viability, T/C [53]: 94.2%
- viability, T/C [54]: 65.8%
- viability, T/C [55]: 99.2%
- viability, T/C [56]: 104%
- viability, T/C [57]: 102%
- viability, T/C [58]: 103%
- viability, T/C [59]: 105%
- viability, T/C [60]: 68.4%
- viability, T/C [61]: 93.7%
- viability, T/C [62]: 103%
- viability, T/C [63]: 94.3%
- viability, T/C [64]: 95.4%
- viability, T/C [65]: 93.1%
- viability, T/C [66]: 67.9%
- viability, T/C [67]: 103%
- viability, T/C [68]: 95.2%
- viability, T/C [69]: 100%
- viability, T/C [70]: 99.2%
- viability, T/C [71]: 98.3%
- viability, T/C [72]: 71.4%

Structure (SMILES): CNCc1ccc(-c2[nH]c3cc(F)cc4c3c2CCNC4=O)cc1 + Nc1ccc(C#CCN(C(=O)Cc2ncc(C(F)(F)F)cc2C(F)(F)F)c2ccc(F)cc2)nn1
- pIC50 (second compound 0.0316 µM): < 5.00
- pIC50 (second compound 0.1 µM): < 5.00
- pIC50 (second compound 0.316 µM): < 5.00
- pIC50 (second compound 1 µM): < 5.00
- pIC50 (second compound 3.16 µM): < 5.00
- pIC50 (second compound 10 µM): < 5.00
- viability, T/C [37]: 91.6%
- viability, T/C [38]: 106%
- viability, T/C [39]: 102%
- viability, T/C [40]: 87.2%
- viability, T/C [41]: 116%
- viability, T/C [42]: 97.7%
- viability, T/C [43]: 100%
- viability, T/C [44]: 95.3%
- viability, T/C [45]: 97.5%
- viability, T/C [46]: 101%
- viability, T/C [47]: 102%
- viability, T/C [48]: 110%
- viability, T/C [49]: 109%
- viability, T/C [50]: 108%
- viability, T/C [51]: 87.4%
- viability, T/C [52]: 96.4%
- viability, T/C [53]: 105%
- viability, T/C [54]: 101%
- viability, T/C [55]: 101%
- viability, T/C [56]: 97.4%
- viability, T/C [57]: 105%
- viability, T/C [58]: 90.5%
- viability, T/C [59]: 107%
- viability, T/C [60]: 122%
- viability, T/C [61]: 100%
- viability, T/C [62]: 112%
- viability, T/C [63]: 111%
- viability, T/C [64]: 97.4%
- viability, T/C [65]: 110%
- viability, T/C [66]: 98.2%
- viability, T/C [67]: 94.8%
- viability, T/C [68]: 104%
- viability, T/C [69]: 110%
- viability, T/C [70]: 102%
- viability, T/C [71]: 104%
- viability, T/C [72]: 105%

Structure (SMILES): CC(=O)O[C@H]1C(=O)[C@@]2(C)[C@H]([C@H](OC(=O)c3ccccc3)[C@]3(O)C[C@H](OC(=O)[C@H](O)[C@@H](NC(=O)c4ccccc4)c4ccccc4)C(C)=C1C3(C)C)[C@]1(OC(C)=O)CO[C@@H]1C[C@@H]2O + Nc1ccc(C#CCN(C(=O)Cc2ncc(C(F)(F)F)cc2C(F)(F)F)c2ccc(F)cc2)nn1
- pIC50 (second compound 0.0316 µM): 6.14
- pIC50 (second compound 0.1 µM): 5.90
- pIC50 (second compound 0.316 µM): 6.09
- pIC50 (second compound 1 µM): 6.05
- pIC50 (second compound 3.16 µM): 6.29
- pIC50 (second compound 10 µM): 6.44
- viability, T/C [1]: 51.6%
- viability, T/C [2]: 54.9%
- viability, T/C [3]: 75.6%
- viability, T/C [4]: 77.2%
- viability, T/C [5]: 45.6%
- viability, T/C [6]: 22.1%
- viability, T/C [7]: 53%
- viability, T/C [8]: 53.8%
- viability, T/C [9]: 72.7%
- viability, T/C [10]: 77.3%
- viability, T/C [11]: 53.2%
- viability, T/C [12]: 25.8%
- viability, T/C [13]: 54%
- viability, T/C [14]: 58.5%
- viability, T/C [15]: 79.9%
- viability, T/C [16]: 78.7%
- viability, T/C [17]: 47.1%
- viability, T/C [18]: 18.9%
- viability, T/C [19]: 46.2%
- viability, T/C [20]: 56.7%
- viability, T/C [21]: 82.3%
- viability, T/C [22]: 79.8%
- viability, T/C [23]: 49.2%
- viability, T/C [24]: 19%
- viability, T/C [25]: 37.2%
- viability, T/C [26]: 53.5%
- viability, T/C [27]: 81.9%
- viability, T/C [28]: 69%
- viability, T/C [29]: 37.9%
- viability, T/C [30]: 19.5%
- viability, T/C [31]: 42.8%
- viability, T/C [32]: 48%
- viability, T/C [33]: 68.8%
- viability, T/C [34]: 51.7%
- viability, T/C [35]: 38%
- viability, T/C [36]: 21.9%
